# Measurements taken from patent US20260077018A1, “TREATMENT OF MILD TRAUMATIC BRAIN INJURY” (OXEIA BIOPHARMACEUTICALS, INC., priority 2022, published 2026).
# No end group written: not given here. *: point of attachment. Octanoyl = CCCCCCCC(=O)*
# System: persistently symptomatic concussion patients
# Assay: Phase 2 study of OXE-103 in persistently symptomatic concussion: QOLIBRI quality of life
# Type: in vivo, human
# Settings: Treated, 13 subjects
# Method: Describe the change in quality of life between the two groups. This aim defines one of the secondary objectives. To assess this, the Quality of Life after Brain Injury scale (QOLIBRI) and a Patient Global Assessment of Status (PGAS) are administered. […] The primary objective with this aim assesses the change between days 1 and 14.
# Described herein is a randomized, double-blind, placebo-controlled design where 40 subjects will be randomized to either a placebo cohort or a treatment with OXE-103 cohort. We randomize using the RedCap database. The database is set up to share randomization allocation only with the investigational pharmacy. All subjects are consented and begin the screening period within 28 days post-injury. There is a 7-day screening period prior to randomization and commencement of study treatment to allow for assessment of stability of symptom burden. This screening period must start no later than 28 days post-injury. Starting with Day 1 (end of screening period), the treatment cohort receives OXE-103 40ug/kg SC twice daily by self-injection and the placebo group receives a placebo injection SC twice daily. Study drug and placebo are maintained and dispensed by Investigational Pharmacy. Subjects receive an 8-day supply of syringes pre-loaded with OXE-103 or placebo. Each cohort receives the 2nd set of syringes with OXE-103 or placebo at the day 7 visit. No therapies other than OXE-103 are administered during the 14-day treatment period to either cohort. After completion of 14 days of either placebo or OXE-103 treatment, starting with the Day 14 visit, other medications and therapies can be initiated for either cohort as needed.
# Quality of Life (AIM 2): A secondary goal is to examine change in quality of life with treatment of sub-acute concussion. Without bewing bound by theory, it is hypothesized that OXE-103 will reduce symptoms when comparing days 1 and 15 and therefore improve quality of life as assessed by 1) Quality of Life after Brain Injury scale (QOLIBRI) and 2) a PGAS.
# The QOLIBRI is a 37 item instrument specifically developed to assess health-related quality of life (HRQoL) of individuals after traumatic brain injury. This is built into a RedCap Survey that will be completed online. Since it was developed for TBI as a disease or condition-specific HRQoL instrument, it is expected to be more sensitive than generic quality of life tools. The QOLIBRI was developed by an international task force in two multi-language studies involving over 2000 persons after TBI. Use of a TBI-specific assessment of HRQoL can detect the effects of interventions by measuring physical, psychological, daily life and psychosocial changes typical of TBI. An increase/decrease of 20% in QOLIBRI is judged to represent an improvement.
# The QOL measures are obtained on day 1, 4, 8, 11, 15, 21, & 44. The completion of these takes an estimated 15 minutes.
# A Phase 2 study of treatment of persistently symptomatic concussion patients with ghrelin (OXE-103) was undertaken at the University of Kansas Medical Center generally as described in Example 1. The interim results are reported herein (FIG. 1).
# A study to treat patients with sub-acute concussion using a pharmaceutical formulation of ghrelin (OXE-103) was performed. The completed results from treatment group of 10 patients were compared to a 3 patient placebo group receiving standard of care (SoC). Additionally, two other patients are currently undergoing the treatment arm of the study at the time of the interim report. The study was performed in a randomized, double blind fashion and compared using self-report symptom scoring, quality of life questionnaires, computerized cognitive testing assessing executive function, memory and processing speed, and accelerometer-based balance scoring.
# Feedback from clinicians indicated a 20% decrease in concussion symptoms would be considered clinically significant improvement. […]
substance,measurement,setting,value
"ghrelin (GSS(Octanoyl)FLSPEHQRVQQRKESKKPPAKLQPR; UniProt Q9UBU3 24-51, looked up) [OXE-103, naturally occurring peptide comprising 28 amino acids that include an N-octanoyl group at the 3-position of serine]",20% Responders - QOLIBRI: Number of Responders,Day 1,0
same,20% Responders - QOLIBRI: Responder %,Day 1,0%
same,30% Responders - QOLIBRI: Number of Responders,Day 1,0
same,30% Responders - QOLIBRI: Responder %,Day 1,0%
same,20% Responders - QOLIBRI: Number of Responders,Day 4,4
same,20% Responders - QOLIBRI: Responder %,Day 4,31%
same,30% Responders - QOLIBRI: Number of Responders,Day 4,3
same,30% Responders - QOLIBRI: Responder %,Day 4,23%
same,20% Responders - QOLIBRI: Number of Responders,Day 8,4
same,20% Responders - QOLIBRI: Responder %,Day 8,31%
same,30% Responders - QOLIBRI: Number of Responders,Day 8,4
same,30% Responders - QOLIBRI: Responder %,Day 8,31%
same,20% Responders - QOLIBRI: Number of Responders,Day 11,7
same,20% Responders - QOLIBRI: Responder %,Day 11,54%
same,30% Responders - QOLIBRI: Number of Responders,Day 11,5
same,30% Responders - QOLIBRI: Responder %,Day 11,38%
same,20% Responders - QOLIBRI: Number of Responders,Day 15,7
same,20% Responders - QOLIBRI: Responder %,Day 15,54%
same,30% Responders - QOLIBRI: Number of Responders,Day 15,5
same,30% Responders - QOLIBRI: Responder %,Day 15,38%
same,20% Responders - QOLIBRI: Number of Responders,Day 21,9
same,20% Responders - QOLIBRI: Responder %,Day 21,69%
same,30% Responders - QOLIBRI: Number of Responders,Day 21,7
same,30% Responders - QOLIBRI: Responder %,Day 21,54%
same,20% Responders - QOLIBRI: Number of Responders,Day 44,11
same,20% Responders - QOLIBRI: Responder %,Day 44,85%
same,30% Responders - QOLIBRI: Number of Responders,Day 44,10
same,30% Responders - QOLIBRI: Responder %,Day 44,77%
